These compounds were tested against T1, VEGF/GAG (glycosaminoglycan) binding (purified VEGF165, [125I]heparin-16-mer) (Homo sapiens, UniProt P15692) (assay: VEGF/GAG (glycosaminoglycan) binding inhibition, [125I]heparin-16-mer filter plate assay). Settings: activity data for representative compounds of formula I; in vitro VEGF165 / [125I]heparin-16-mer binding, 60 minutes at room temperature.
T1 construct: purchased Repligen, Inc
T1 sequence (P15692 27-191 isoform P15692-4): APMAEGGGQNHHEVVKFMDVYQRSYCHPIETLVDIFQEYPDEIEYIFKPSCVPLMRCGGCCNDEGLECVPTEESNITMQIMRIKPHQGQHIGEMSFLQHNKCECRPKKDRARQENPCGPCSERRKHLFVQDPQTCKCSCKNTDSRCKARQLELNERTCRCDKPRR
Description: The in vitro activity of the compounds of formula I in inhibiting VEGF/GAG (glycosaminoglycan) binding may be measured using the assay described in U.S. Pat. No. 5,795,860, the subject matter of which is incorporated herein by reference.
Using mixed cellulose ester 96-well filter plates, 150 μL of Dulbeccos PBS (phosphate buffered saline) containing 10% ovalbumin is added. Compound (5.0 μL) is added at a final concentration of 1.8 μM. Compounds are dissolved in 8% DMSO (final DMSO concentration is 0.16%) and tested at concentrations of 32, 10, 3.2, 1.0, 0.32 and 0.10 μM. A mixture of [^125I]heparin-16-mer (4500 cpm per well), purified VEGF165 (20 nM final concentration/well, prepared by Repligen, Inc.) and Dulbeccos PBS with 10% ovalbumin is added to the 96-well plate in a volume of 100 μL. Nonspecific binding is defined using 10 μM heparin-sodium from porcine intestinal mucosa. The assay plate is incubated for 60 minutes at room temperature, filtered using a Millipore filtration apparatus, the plastic bottom plate is removed and the filter plate is allowed to completely dry. The plate bottom is sealed with plastic plate seal and 25 μL of scintillation cocktail is added to each well. The top plate is sealed and is counted for radioactivity on a Microbeta Scintillation Counter. The assay is run in a final volume of 250 μL.

| SMILES | IC50 [µM] |
| --- | --- |
| Cc1oc(-c2ccccc2)nc1Cc1cc2cc(CC(OCCCO)C(=O)O)ccc2o1 (stereo not drawn) [2-(3-Hydroxy-propoxy)-3-[2-(5-methyl-2-phenyl-oxazol-4-ylmethyl)-benzofuran-5-yl]-propionic acid] | 14 |
| C=CCOC(Cc1ccc2oc(Cc3nc(-c4ccccc4)oc3C)cc2c1)C(=O)O (stereo not drawn) [2-Allyloxy-3-[2-(5-methyl-2-phenyl-oxazol-4-ylmethyl)-benzofuran-5-yl]-propionic acid] | 13 |
| Cc1oc(-c2ccccc2)nc1Cc1cc2cc(CC(SCc3ccccc3)C(=O)O)ccc2o1 (stereo not drawn) [2-Benzylsulfanyl-3-[2-(5-methyl-2-phenyl-oxazol-4-ylmethyl)-benzofuran-5-yl]-propionic acid] | 2.6 |
| CSC(Cc1ccc2oc(Cc3nc(-c4cccc(C)c4)oc3C)cc2c1)C(=O)O (stereo not drawn) [2-Methylsulfanyl-3-[2-(5-methyl-2-m-tolyl-oxazol-4-ylmethyl)-benzofuran-5-yl]-propionic acid] | 8 |
| CCCCCCCCSC(Cc1ccc2oc(Cc3nc(-c4ccccc4)oc3C)cc2c1)C(=O)O (stereo not drawn) [3-[2-(5-Methyl-2-phenyl-oxazol-4-ylmethyl)-benzofuran-5-yl]-2-octylsulfanyl-propionic acid] | 0.8 |
| Cc1oc(-c2ccccc2)nc1Cc1cc2cc(CC(Oc3ccccc3)C(=O)O)ccc2o1 (stereo not drawn) [3-[2-(5-Methyl-2-phenyl-oxazol-4-ylmethyl)-benzofuran-5-yl]-2-phenoxy-propionic acid] | 2 |

The next lines start with the values.

| IC50 [µM] | SMILES |
| --- | --- |
| 1.5 | CCCSC(Cc1ccc2oc(Cc3nc(-c4ccccc4)oc3C)cc2c1)C(=O)O (stereo not drawn) [3-[2-(5-Methyl-2-phenyl-oxazol-4-ylmethyl)-benzofuran-5-yl]-2-propylsulfanyl-propionic acid] |
| 6.8 | Cc1oc(-c2ccccc2)nc1Cc1cc2cc(CCC(=O)O)ccc2o1 [3-[2-(5-Methyl-2-phenyl-oxazol-4-ylmethyl)-benzofuran-5-yl]-propionic acid] |
| 4.5 | CSC(Cc1ccc(OCCc2nc(-c3ccccc3)oc2C)cc1)C(=O)O (stereo not drawn) [3-{4-[2-(5-Methyl-2-phenyl-oxazol-4-yl)-ethoxy]-phenyl}-2-methylsulfanyl-propionic acid] |
